From patent publication US11072601B2, “μ-opioid receptor agonist and preparation method therefor and use thereof in field of medicine” (SHANGHAI SYNERGY PHARMACEUTICAL SCIENCES CO., LTD., priority 2017, dated 2021)

Experiments:
[1] = molecular target: T1, β-arrestin signaling pathway of MOR (Homo sapiens, UniProt P35372); assay: cell-based; conditions: PathHunter HEK293 cells, relative to endorphin MAX control
T1 construct: host or cells: HEK293 (PathHunter cell line)

SD rats = assay: Respiratory depression in rats, arterial blood gas PCO2; assay type: in vivo
Text: 8-week-old male SD rats weighing 200 g-300 g were used as experimental animals to determine the effect of the compound of Example H05, the compound of Example H08, the compound of Example H10, the compound of Example H16, the compound of Example H17, the compound of Example H18, the compound of Example H21, and the compound of Example H24 on the partial pressure of blood in rats after intravenous administration. The effects of the compounds of the invention on respiratory depression were investigated.
After the rats were acclimatized to the experimental environment for 3 days, each animal was anesthetized with sodium pentobarbital (50-60 mg/kg, ip), and then the right common carotid artery was isolated and the unilateral carotid artery tube-bury surgery was performed (PE60, ID*OD*length as 0.76 mm*1.22 mm*20 cm, buried into the artery 1 cm deep, and the tube was filled with heparin sodium tube sealing solution).

μ opioid receptor (MOR) = molecular target: T2, μ opioid receptor (MOR) (Homo sapiens, UniProt P35372); assay: cell-based; conditions: HEK293 stably expressing μ opioid receptor, FLIPR calcium
T2 construct: host or cells: HEK293
T2 sequence (P35372 whole entry, species assumed): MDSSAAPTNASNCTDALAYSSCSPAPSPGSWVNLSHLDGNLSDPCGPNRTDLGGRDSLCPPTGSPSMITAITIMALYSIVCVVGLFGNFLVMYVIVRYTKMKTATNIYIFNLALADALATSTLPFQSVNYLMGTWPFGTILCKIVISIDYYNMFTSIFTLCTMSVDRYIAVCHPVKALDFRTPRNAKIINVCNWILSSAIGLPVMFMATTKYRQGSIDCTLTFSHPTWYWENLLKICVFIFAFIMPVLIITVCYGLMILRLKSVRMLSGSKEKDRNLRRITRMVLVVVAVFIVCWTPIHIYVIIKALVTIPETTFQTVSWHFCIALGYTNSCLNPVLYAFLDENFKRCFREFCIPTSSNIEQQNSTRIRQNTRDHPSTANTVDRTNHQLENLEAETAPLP
Method: The purpose of the experiment was to test the agonistic effects of the compounds of the present invention on μ opioid receptor (MOR), κ opioid receptor (KOR) and δ opioid receptor (DOR), and to evaluate in vitro activity of the compounds according to the half-maximal effect concentration (EC50).
This test was performed using HEK293 cell lines (the stably expressed cell lines were provided by WuXi AppTec) which stably expressed μ opioid receptor, δ opioid receptor or κ opioid receptor respectively. […] The cells were centrifuged at 1000 rpm for 5 minutes at room temperature to precipitate. The supernatant was sucked out, be careful not to suck out cells. The precipitate was flicked into the loose cells and resuspend in 45 ml DMEM medium. The Vi-CELL XR automatic cell viability detector (BECKMAN COULTER) was used to count the cells, and the cell concentration was adjusted to 10×10^5 cells/ml based on the counting results.
Preparation of probenecid mother solution: 1 ml of FLIPR test solution was added to 77 mg probenecid to prepare a 250 mM solution. The solution was freshly prepared just before use.
The solution was freshly prepared just before use.
The cell plate prepared above was removed from the incubator and 20 ul 2× Fluo-4 Direct™ buffer was added thereto. The final volume in the cell plate was […]. The plate was incubated at 37° C., under 5% CO2 for 50 minutes, and incubated at room temperature for 10 minutes, then was placed into the FLIPR instrument (MD), and the compound plate and pipette box was placed into. The protocol was run on the […] platform, 10 μl of positive drug or the test compound was transfered to the cell plate from the compound plate, and the fluorescent signal was read.
The signal value generated by each well was calculated, and the calculation formula was that: the activity %=(signal value of the test compound−signal value of the solvent)/(signal value of the positive drug−signal value of the solvent).

[2] = molecular target: T3, cAMP pathway of MOR receptor (Homo sapiens, UniProt P35372); assay: cell-based; conditions: cAMP Hunter HEK293 cells, forskolin-induced cAMP; read-out: EC50 of cAMP levels affected by agonistic effect on MOR
T3 construct: host or cells: HEK293 (cAMP Hunter cell line)
T3 sequence (P35372 whole entry): as the sequence (P35372 whole entry, species assumed) above
Text: The purpose of this experiment was to test the agonistic effect of the compounds of the invention on the cAMP pathway of MOR and to evaluate the in vitro activity of the compounds according to EC50.
In this experiment, HitHunter cAMP Assay EFC technology of DiscoverX was used to measure the cAMP level in cells and monitor the functional status of G-protein coupled receptors (GPCRs).
The amount of signal produced was directly proportional to the amount of cAMP in the cell.
The MOR receptor was bound to the inhibitory Gαi protein, so forskolin (for inducing cAMP signal) was used to induce cAMP expression in the experiment, and the inhibitory effect of the compounds on the above induction was measured.
The cAMP Hunter cell line (HEK293, DiscoverX) was removed from the freezer and expanded according to the Cell Standard Operating Procedure (SOP), 20 μL was collected and inoculated into a 384-well microplate and incubated at 37° C. overnight.
The HitHunter cAMP Assay test kit (DiscoverX, 90-0075sm) was used, the kit contained cAMP buffer, cAMP detection solution, and cAMP working solution A.
The formula was used to calculate the percentage of signal activity per well=100%×(1−(average RLU of the test samples−average RLU of the MAX controls)/(average RLU of the solvent controls−average RLU of the MAX controls)). wherein, the MAX control referred to the fluorescence signal value of the endorphin solution, and the solvent control referred to the fluorescence signal value of DMSO. The DiscoveRx CBIS data analysis workstation (ChemInnovation, CA) was used to perform statistical analysis of the percentage of signal activity and the concentration of the compounds by the agonist formula (comes with the software, universal) to calculate the EC50 value.

T1 sequence (P35372 whole entry): as the sequence (P35372 whole entry, species assumed) above

SMILES	Emax [1] [%]	PCO2, 5 min before administration (SD rats; arterial blood, before administration) [mmHg]	PCO2, 5 min after administration (SD rats; intravenous single dose 0.3 mg/kg (morphine 24 mg/kg), 5 min) [mmHg]	PCO2, 30 min after administration (SD rats; intravenous single dose 0.3 mg/kg (morphine 24 mg/kg), 30 min) [mmHg]	PCO2, 60 min after administration (SD rats; intravenous single dose 0.3 mg/kg (morphine 24 mg/kg), 60 min) [mmHg]	PCO2, 120 min after administration (SD rats; intravenous single dose 0.3 mg/kg (morphine 24 mg/kg), 120 min) [mmHg]	EC50 (μ opioid receptor (MOR)) [nM]	EC50 [2] [nM]
Cc1ccc(CNCCC2(c3ccccn3)CCOC3(CCCC3)C2)c(C)c1 (centres unmarked) [Example H08, (2,4-dimethylbenzyl)-[2-(9-(pyridin-2-yl)-6-oxaspiro[4.5]decan-9-yl)ethyl]amine]	3.8	33.77 ± 0.88	35.48 ± 1.54	34.03 ± 0.69	34.27 ± 1.4	34.83 ± 1.15	3.42	4.77
COc1[nH]ncc1CNCCC1(c2ccccn2)CCOC2(CCCC2)C1 (centres unmarked) [Example H25, [(5-methoxy-1H-pyrazol-4-yl)methyl]-[2-(9-(pyridin-2-yl)-6-oxaspiro[4.5]decan-9-yl)ethyl] amine]	3.2	–	–	–	–	–	2.02	12.8
COc1ccsc1CNCC(C)C1(c2ccccn2)CCOC2(CCCC2)C1 (centres unmarked) [Example H26]	22.6	–	–	–	–	–	1.76	6.95
COc1ccsc1CNC(C)CC1(c2ccccn2)CCOC2(CCCC2)C1 (centres unmarked) [Example H27]	3.32	–	–	–	–	–	4.01	12
FC(F)(F)Oc1c(Br)cccc1CNCCC1(c2ccccn2)CCOC2(CCCC2)C1 (centres unmarked) [Example H28, (3-bromo-2-trifluoromethoxybenzyl)-[2-(9-pyridin-2-yl-6-oxa-spiro[4.5]decan-9-yl)-ethyl]-amine]	6.26	–	–	–	–	–	6.35	14.2
Fc1ccc(C2(CCNCc3ccccc3OC(F)F)CCOC3(CCCC3)C2)nc1 (centres unmarked) [Example H29, {2-[9-(5-fluoro-pyridin-2-yl) -6-oxa-spiro[4.5]decan-9-yl]-ethyl}-(2-(difluoromethoxy)-benzyl) -amine]	7.07	–	–	–	–	–	6.09	10.4
Fc1ccc(C2(CCNCc3sccc3Cl)CCOC3(CCCC3)C2)nc1 (centres unmarked) [Example H30, {2-[9-(5-fluoro-pyridin-2-yl)-6-oxa-spiro[4.5]decan-9-yl]-ethyl}-((3-chlorothiophen-2-yl)-methyl)-amine]	2.91	–	–	–	–	–	5.62	17.4
Cc1ccc(CNCCC2(c3ccc(F)cn3)CCOC3(CCCC3)C2)cc1C (centres unmarked) [Example H31, {2-[9-(5-fluoro-pyridin-2-yl)-6-oxa-spiro[4.5]decan-9-yl]-ethyl}-(3,4-dimethyl-benzyl)-amine]	5.06	–	–	–	–	–	3.83	8.73
Cc1c(Cl)cccc1CNCCC1(c2ccc(F)cn2)CCOC2(CCCC2)C1 (centres unmarked) [Example H32, {2-[9-(5-fluoro-pyridin-2-yl)-6-oxa-spiro[4.5]decan-9-yl]-ethyl}-(3-chloro-2-methyl-benzyl)-amine]	11.7	–	–	–	–	–	7.35	13.5
Fc1ccc(C2(CCNCc3sccc3OC(F)F)CCOC3(CCCC3)C2)nc1 (centres unmarked) [Example H33, {2-[9-(5-fluoro-pyridin-2-yl)-6-oxa-spiro[4.5]decan-9-yl]-ethyl}-((3-difluoromethoxythiophen-2-yl) -methyl)-amine]	8.69	–	–	–	–	–	5.25	12
